{"source": "patent US20240306641A1", "about": "“P-BOOSTER” (EUROCHEM ANTWERPEN, priority 2021, published 2024)", "key": {"[1]": {"tested_on": "SPX1 phosphate starvation biomarker (pSPX1::GUS)", "assay": "Chemical activity assessment: SPX1 suppression in Arabidopsis pSPX1::GUS reporter line (GUS stained area)", "format": "in vivo, Arabidopsis thaliana", "procedure": "All Arabidopsis plant experiments were performed using the Arabidopsis thaliana Columbia-0 background. The Arabidopsis pSPX1::GUS line is described in the […] 2008, 54: 965-975. For rice, the cultivar Nipponbare was used. For maize, the cultivars DKC 2931 and 8104 were used for regular pot experiments and sand-based pot experiments, respectively. For soybean, the cultivar Primus was used. […] The medium was solidified due to the addition of 0.6% Gelrite, unless stated otherwise. In case of vertical plates (root length and root hair measurements), the medium was supplied with 0.5% of sucrose and 1 μM (low phosphate, 1 μM KH2PO4, 9.9 mM KCl), 10 μM (low phosphate 10 μM KH2PO4, 9.9 mM KCl) or 1.25 mM KH2PO4 (high phosphate). Arabidopsis seeds were stratified for 2 days at 4° C. before germination. Seedlings were germinated in climate-controlled growth chambers at 22° C. under continuous light ([…] m^−2 s^−1). Husked rice seeds were germinated on wetted Whatman paper for 2 days at 37° C. and then transferred to Sterivent boxes or square Petri dishes with solid medium. Maize and soybean seeds were wetted 24 hours at room temperature prior to sowing in pots.\nFor the chemical activity assessment 3 to 8 seeds per well of Arabidopsis pSPX1::GUS line were sown in 96-well plates containing 150 μl of low phosphate modMS liquid medium containing 1% of sucrose. Compounds were added in 50 μM concentration, starting from a 5 mM stock of compounds solved in DMSO. Different chemical substances were separately added to different wells. Per plate, 16 control wells were used, 8 containing only the low phosphate medium and 1% DMSO, and 8 containing high phosphate medium and 1% DMSO. 7 days after germination, plates were scanned using a flatbed scanner (EPSON Expression 11000XL) and analyzed for leaf size. After scanning, the growth medium was replaced by GUS staining solution (see Plant Mol. Biol. Rep. 1994, 12: 37-42 for details) and incubated for 1.5 hours at 37° C. The plates were scanned a second time and analyzed for GUS signal area. Measurements of both leaf area and GUS signal area were conducted by filtering out and measure the green and blue signal, respectively using ImageJ software. If the green leaf area was 50% or less than the control, samples were omitted. Additionally, all results were visually screened for leaf size and GUS signal.\nTo identify new substances that suppress the expression of the SPX1 phosphate starvation biomarker, we used an Arabidopsis SPX1 reporter line pSPX1::GUS. […] This observation was confirmed in two experimental repeats."}, "rice cultivar Nipponbare": {"tested_on": "rice cultivar Nipponbare", "assay": "Rice box experiment (plant height)", "format": "in vivo", "conditions": "low phosphate 0.025 mM, 10 μM compound, 13 days after germination", "procedure": "All Arabidopsis plant experiments were performed using the Arabidopsis thaliana Columbia-0 background. The Arabidopsis pSPX1::GUS line is described in the […] 2008, 54: 965-975. For rice, the cultivar Nipponbare was used. For maize, the cultivars DKC 2931 and 8104 were used for regular pot experiments and sand-based pot experiments, respectively. For soybean, the cultivar Primus was used. […] The medium was solidified due to the addition of 0.6% Gelrite, unless stated otherwise. […]\nArabidopsis primary root growth experiments were done on MS1/2 on vertical standing plates and roots were measured 11 days after germination. Roots were imaged using a flatbed scanner (EPSON Expression 11000XL) and root length was measured using ImageJ software. Arabidopsis shoot biomass was determined in 11 days after germination and growth on vertical standing plates with modMS. Arabidopsis leaf area was measured 21 days after germination on horizontal plates with modMS medium. Plates were scanned from the top using a flatbed scanner (EPSON Expression 11000XL) and the visible leaf area was measured using ImageJ software. […] Plant height was measured 11 days after germination. […] Plant height was measured 13 days after germination. […]"}, "[2]": {"tested_on": "Arabidopsis thaliana Columbia-0", "assay": "Arabidopsis pot experiment (rosette size, soil phosphate, anthocyanin)", "format": "in vivo", "procedure": "Regular Arabidopsis, soybean and maize pot experiments used an unfertilized potting soil, which was supplemented at the start of the experiment with 50 ml H2O containing 0.25 g/l NH4NO3 and 0.44 g/l (high phosphate) or no (maize and soybean) or 0.11 g/l KH2PO (Arabidopsis) for low phosphate conditions. For the sand-based maize pot experiment, sand was supplemented with 50 ml H2O containing 0.25 g/l NH4NO3 and 0.38 g/l (high phosphate) or 0.02 g/l (low phosphate) KH2PO4. Potassium was balanced via addition of KCl. Compound concentration was 10 μM, calculated based on the total water content after watering, and was added at the start of the experiment (Arabidopsis) or once a week (maize). Indexed chlorophyll contents were received via a SPAD 502 Plus Chlorophyll Meter. All parameters in the sand experiment, except the rate of leaf 4 (measured the first 4 days after emergence), were measured 19 days after sowing. Measurements in the pot experiments with potting soil were done after 4 weeks of growth, except for leaf 5, which was measured at 26 days. The long term maize pot experiment was performed on the automated Phenovision platform (see Mertens et al, 2021, https://doi.org/10.3389/fpls.2021.640914) with maize cultivars B104 and DKC2931. End point measurements occurred after 90 days (B104) or 70 days (DKC2931). Plants were grown on an unfertilized potting soil, which was fertilized bi-weekly with 50 mL modified Hoagland solution (2.5× concentrated; but with 0.25 mM KH2PO4). Col-0 ecotype Arabidopsis seeds were sown in 96-well plates containing 150 μl of low phosphate modMS liquid medium containing 1% of sucrose. Compounds was added in 50 μM concentration (1% DMSO). 7 days after germination, plates were scanned using a flatbed scanner (EPSON Expression 11000XL) and wells containing non-germinated seedlings were excluded from the following analysis. Plants were removed from each well and 50 μl of medium was recovered from each well and used for molybdenum blue staining as described in Plant Physiology 2008, 146:1673-1686. To measure the phosphate level in soil, Olsen P extraction was used on 1 g of air dried soil, 500 ul of extract was used for molybdenum blue staining as described in The Plant cell 2013, 25:1641-1656. Values were expressed relative to the low phosphate control. Col-0 ecotype Arabidopsis seeds were sown in 96-well plates containing 150 μl of low phosphate modMS liquid medium containing 1% of sucrose. […] Extraction and quantification of anthocyanin levels was carried out according to The Plant cell 2013, 25:1641-1656. Anthocyanin levels were quantified by measuring absorption at 530 and 657 nm using a spectrophotometer and normalized to fresh weight input, and expressed relative to the low phosphate control. […]"}}, "note": "Entries after “also recorded” stand apart in the source; their conditions may differ."}
{"smiles": "CCN(CCCNc1ncnc2nc(N)ccc12)c1ccccc1", "note": "[Example 1]", "values": [{"measurement": "GUS (SPX1) stained area normalized to the number of seeds", "setting": "[1]; 50 μM compound, low phosphate modMS liquid medium, 96-well, 7 days after germination, low phosphate control of same plate", "result": 0.3, "unit": "pixels"}, {"measurement": "Suppression of the SPX1 biomarker (in words)", "setting": "[1]; low phosphate, 7 days of growth, GUS staining, listed as compound 17", "result": "practically completely suppressed the SPX1 biomarker; also recorded: strongest suppression of SPX1"}, {"measurement": "Plant height", "setting": "rice cultivar Nipponbare", "result": 4.1, "unit": "cm"}, {"measurement": "Relative anthocyanin level", "setting": "[2]; Arabidopsis pot, 4-week old plant, relative to low phosphate control (=1)", "result": 0.7}, {"measurement": "Phosphate level in soil (relative value)", "setting": "[2]; Arabidopsis pot, Olsen P, after 4 weeks, relative to low phosphate control (=1)", "result": 0.8}, {"measurement": "Rosette size", "setting": "[2]; Arabidopsis pot, low phosphate, 10 μM compound, 4 weeks", "result": 17, "unit": "cm^2"}, {"measurement": "Anthocyanin level in the leaves (in words)", "setting": "[2]; plants grown in pots", "result": "reduced"}]}
